In one assay the test system is B16 melanoma cells. Description: MTT proliferation assay of B16 melanoma cells. Type of assay: cell-based, murine.
In assay [1] the test system is Wnt/β-catenin pathway (Axin2) in B16 cells. Description: Quantitative PCR of Axin2 in B16 cells. Type of assay: cell-based, murine. How it is done: Cells were cultured for approximately 72 hours until they reached 80-90% confluency. RNA was purified using the RNeasy kit using the manufacturer's protocol (Qiagen; Maryland, MD). cDNA was synthesized using Superscript Reverse Transcriptase (Invitrogen; Grand Island, N.Y.). Light Cycler FastStart DNA Master SYBR Green1 (Roche; Mannheim, Germany) was used for real-time PCR as previously described (Major et al., Science 316:1043 (2007), which is hereby incorporated by reference in its entirety). Quantitative PCR results presented in the manuscript are representative of experiments performed on a minimum of three biologic replicates.

The test system of assay [2] is nuclear β-catenin in B16 cells. Description: Immunofluorescent staining of β-catenin in B16 cells. Type of assay: cell-based, murine. How it is done:
A polyclonal rabbit anti-β-catenin antibody was used for detection of β-catenin (1:1000 dilution for immunoblot, 1:200 dilution for immunohistochemistry). Cells were grown on 18 mm glass coverslips, for 48-72 hours, fixed using 4% paraformaldehyde, permeabilized using 0.25% Triton X-100, and then blocked with 10% goat serum. Goat anti-rabbit Alexa Fluor-568 antibody (Molecular Probes; Eugene, Oreg.) was diluted 1:1000. Cells were counterstained for nucleic acid with DAPI (Molecular Probes; Eugene, Oreg.). Paraffin-embedded nevus sections were stained using an antibody dilution of 1:200. Cellular lysates were obtained by lysing cells on plate with a 0.1% NP-40 based buffer and analyzed by NuPage 4-12% gradient gels (Invitrogen; Grand Island, N.Y.). The WNT5A antibody was obtained from Cell Signaling Technologies (Danvers, Mass.).

For assay [3], the system named is human melanoma cell lines. Description: Proliferation of human melanoma cell lines (hematocytometer or MTT assay). Format: cell-based. The note with it: 10 mM lithium chloride, 3-7 days, FIG. 4D. (Tetrazolium dyes change colour on reduction, which living cells bring about.)

This note sets out measurements from patent US20120040916A1, “MOLECULAR INHIBITORS OF THE WNT/BETA-CATENIN PATHWAY” (MASSACHUSETTS INSTITUTE OF TECHNOLOGY, priority 2008, published 2012).

As to `[Cl-].[Li+]` [lithium chloride], in the assay with B16 melanoma cells (10 mM lithium chloride vs control cells, FIG. 5E), the “Proliferation by MTT assay” value is reported as “decreased proliferation”. Further, in assay [1] (10 mM lithium chloride vs control cells, FIG. 5C), the “Axin2 levels by quantitative PCR” value was “increased Axing levels”. Moreover, in assay [2] (10 mM lithium chloride vs 10 mM sodium chloride, FIG. 5A), the “Nuclear β-catenin by immunofluorescent staining” value is listed as “increased nuclear β-catenin”. Besides, in assay [3], the “Proliferation, normalized to growth in 10 mM sodium chloride” value was “inhibited proliferation in all human melanoma cell lines tested”.
Take `O=C1Nc2cc(Br)ccc2/C1=C1/Nc2ccccc2/C1=N\O` [BIO]: the “Proliferation by MTT assay” value with B16 melanoma cells (1 μM BIO vs control cells, FIG. 5F) is “decreased proliferation”. Moreover, in assay [1] (1 μM BIO vs control cells, FIG. 5D), the “Axin2 levels by quantitative PCR” value was “increased Axing levels”. The “Nuclear β-catenin by immunofluorescent staining” value in assay [2] (1 μM BIO vs DMSO, FIG. 5B) is on record as “increased nuclear β-catenin”.
